Patent publication US5658916A, “Drug active on the central nervous system, a process for the preparation thereof and pharmaceutical compositions containing it” (Vita-Invest, S.A., priority 1994, dated 1997)
Read-outs that look alike come from different tables or passages of the source.

Key:
D2 receptors = target: T1, D2 receptors (Rattus norvegicus, UniProt P61169); assay: Displacement of 3H-spiroperidol binding to D2 receptors (striate tissue of rat brain)
T1 construct: Striate tissue of rat brain was prepared; from tissue; host or cells: rat brain striatum, crude membrane homogenate
T1 sequence (P61169 whole entry): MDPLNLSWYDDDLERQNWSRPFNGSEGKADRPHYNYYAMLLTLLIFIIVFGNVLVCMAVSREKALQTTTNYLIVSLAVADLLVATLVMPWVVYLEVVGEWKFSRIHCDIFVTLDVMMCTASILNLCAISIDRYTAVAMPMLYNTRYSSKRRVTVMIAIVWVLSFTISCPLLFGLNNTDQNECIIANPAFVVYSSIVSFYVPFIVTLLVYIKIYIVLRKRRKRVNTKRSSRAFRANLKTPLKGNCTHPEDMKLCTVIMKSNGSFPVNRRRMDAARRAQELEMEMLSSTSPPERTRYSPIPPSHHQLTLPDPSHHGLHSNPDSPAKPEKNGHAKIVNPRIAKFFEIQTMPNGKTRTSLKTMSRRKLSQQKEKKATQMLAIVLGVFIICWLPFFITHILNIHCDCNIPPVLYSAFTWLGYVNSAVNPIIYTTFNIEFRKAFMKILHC
Procedure: Studies on binding to D2 receptors.
These were carried out as described by Leysen et al (1978), with certain modifications. Striate tissue of rat brain was prepared, with homogenization in 20 volumes of Tris-HCl buffer in ice (50 mM, pH=7.7, 4° C.), The homogenate was centrifuged (40,000 g, 10 min) and the pellet was suspended in 10 volumes of cold buffer and recentrifuged. The final pellet was suspended in 10 volumes of 50 mM Tris-HCl buffer, with 120 mM of NaCl and 5 mM of […] (pH=7.7). The displacement studies were carried out with 25 μl of ^3 H-spiroperidol (0.2 nM, NEN), 25 μl of cold displacer and 200 μl of tissue. The incubation (37° C., 15 min) was terminated by rapid filtering through Whatman GF/C filters.

5HT2 receptors = target: T2, 5HT2 receptors (Rattus norvegicus, UniProt P14842); assay: Displacement of 3H-ketanserine binding to 5HT2 receptors (front cortex of rat brain); conditions: 3H-ketanserine 0.5 nM, 37° C., 15 min
T2 construct: Front cortex of rat brain was prepared; from tissue; host or cells: rat brain frontal cortex, crude membrane homogenate
T2 sequence (P14842 whole entry): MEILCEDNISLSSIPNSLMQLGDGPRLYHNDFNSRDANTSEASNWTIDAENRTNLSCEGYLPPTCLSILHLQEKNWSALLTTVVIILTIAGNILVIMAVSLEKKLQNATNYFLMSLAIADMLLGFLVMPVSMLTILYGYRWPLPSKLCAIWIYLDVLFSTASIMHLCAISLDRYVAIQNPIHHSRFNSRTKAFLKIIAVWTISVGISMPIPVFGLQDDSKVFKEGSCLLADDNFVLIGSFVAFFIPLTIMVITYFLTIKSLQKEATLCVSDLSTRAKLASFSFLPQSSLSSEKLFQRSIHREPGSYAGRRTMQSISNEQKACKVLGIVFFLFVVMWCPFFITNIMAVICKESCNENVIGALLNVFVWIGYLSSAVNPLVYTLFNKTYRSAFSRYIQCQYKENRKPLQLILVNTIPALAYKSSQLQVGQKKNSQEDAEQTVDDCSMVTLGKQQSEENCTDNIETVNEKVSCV
Procedure: These were carried out as described by Leysen et al (1978), with certain modifications. […] The incubation (37° C., 15 min) was terminated by rapid filtering through Whatman GF/C filters.

α1-adrenergic receptors = assay: Displacement of 3H-prazosin binding to α1-adrenergic receptors (rat brain cortex); conditions: read-out: Displacement (Ki, nM) of the binding of 3H-prazosin to α1-adrenergic receptors, 3H-prazosin 0.5 nM, 37° C., 15 min, pH 7.7
Procedure: Binding to at adrenergen receptors
These were carried out as described by Morrow et al . […] Rat brain cortical tissue was obtained, with homogenization in 20 volumes of Tris-HCl buffer in ice (50 mM, pH=7.7, 4° C.). The homogenate was centrifuged (25,000 rpm/12 min at 4° C.) and the pellet was rehomogenized, being finally resuspended in 50 mM Tris-HCl buffer, pH=7.7 (dilution 1:200). […] The incubation (37° C., 15 min) was terminated by rapid filtering through Whatman GF/C filters, followed by washing twice with […] of Tris-HCl buffer, 50 mM.

| Ki (D2 receptors; striate rat tissue, 3H-spiroperidol 0.2 nM, 37° C., 15 min, pH 7.7) [nM] | SMILES | Ki (D2 receptors) [nM] | Ki (5HT2 receptors) [nM] | Ki (α1-adrenergic receptors) [nM] |
| --- | --- | --- | --- | --- |
| – | Cc1nc2n(c(=O)c1CCN1CC=C(c3noc4cc(F)ccc34)CC1)CCCC2 [Compound I, 3-{2-[4-(6-fluoro-benzo[d]isoxazol-3-yl)-3,6-dihydro-2H-pyridin-1-yl]-ethyl}-2-methyl-6,7,8,9-tetrahydropyrido[1,2-a]-pyrimidin-4-one] | 22 | 1.7 | 14.6 |
| 47.7 | Cc1nc2sccn2c(=O)c1CCN1CCC(=C(c2ccc(F)cc2)c2ccc(F)cc2)CC1 [Ritanserine, reference compound] | – | – | 29.6 |
